Measurements as given in ChEMBL document CHEMBL1121985, “3'-Hydroxy- and (+/-)-3',11-dihydroxy-delta 9-tetrahydrocannabinol: biologically active metabolites of delta 9-tetrahydrocannabinol” (1982).

Columns and labels:
[1] = tested on: Canis familiaris; test: Cardiovascular effect for percentage change in heart rate in anesthetized dogs after 1 mg/kg iv dose; type: functional, Canis lupus familiaris
[2] = tested on: Canis familiaris; test: Tested for Maximal behavioral effect(overt behavior) in dogs, activity is expressed as av score at a dose of 0.05 mg/kg; type: functional, Canis lupus familiaris
[3] = tested on: Mus musculus; test: Tested for the ability to alter the spontaneous activity in mice at 1 mg/kg; type: functional
[4] = tested on: Mus musculus; test: Tested for the ability to change in rectal temperature in mice at 0.1 mg/kg; type: functional
[5] = tested on: Mus musculus; test: Tested for the ability to change in rectal temperature in mice at 0.3 mg/kg; type: functional
[6] = tested on: Mus musculus; test: Tested for the ability to change in rectal temperature in mice at 1 mg/kg; type: functional
[7] = tested on: Canis familiaris; test: Cardiovascular effect for percentage change in blood pressure in anesthetized dogs after 1 mg/kg iv dose; type: functional, Canis lupus familiaris
[8] = tested on: Mus musculus; test: Tested for the ability to alter the spontaneous activity in mice at 10 mg/kg; type: functional
[9] = tested on: Mus musculus; test: Tested for the ability to alter the spontaneous activity in mice at 3 mg/kg; type: functional
[10] = tested on: Mus musculus; test: Tested for the ability to alter the spontaneous activity in mice at 0.3 mg/kg; type: functional
[11] = tested on: Mus musculus; test: Tested for the ability to change in rectal temperature in mice at 3 mg/kg; type: functional
[12] = tested on: Mus musculus; test: Tested for the ability to alter the spontaneous activity in mice at 0.1 mg/kg; type: functional
[13] = tested on: Canis familiaris; test: Tested for Maximal behavioral effect(overt behavior) in dogs, activity is expressed as av score at a dose of 0.1 mg/kg; type: functional, Canis lupus familiaris
[14] = tested on: Mus musculus; test: Tested for the ability to change in rectal temperature in mice at 10 mg/kg; type: functional
[15] = tested on: Canis familiaris; test: Tested for Maximal behavioral effect(overt behavior) in dogs, activity is expressed as av score at a dose of 0.2 mg/kg; type: functional, Canis lupus familiaris
[16] = tested on: Mus musculus; test: Tested for the ability to alter the spontaneous activity in mice at 6 mg/kg; type: functional
[17] = tested on: Mus musculus; test: Tested for the ability to alter the spontaneous activity in mice at 30 mg/kg; type: functional
[18] = tested on: Mus musculus; test: Tested for the ability to change in rectal temperature in mice a 3 mg/kg; type: functional
[19] = tested on: Canis familiaris; test: Tested for Maximal behavioral effect(overt behavior) in dogs, activity is expressed as av score at a dose of 0.5 mg/kg; type: functional, Canis lupus familiaris
[20] = tested on: Mus musculus; test: Tested for the ability to change in rectal temperature in mice at 6 mg/kg; type: functional
[21] = tested on: Mus musculus; test: Tested for the ability to change in rectal temperature in mice at 30 mg/kg; type: functional
[22] = tested on: Mus musculus; test: Tested for the ability to alter the spontaneous activity in mice at 5.0 mg/kg; type: functional
[23] = tested on: Mus musculus; test: Tested for the ability to change in rectal temperature in mice at 2.5 mg/kg; type: functional
[24] = tested on: Mus musculus; test: Tested for the ability to alter the spontaneous activity in mice at 7.5 mg/kg; type: functional
[25] = tested on: Mus musculus; test: Tested for the ability to alter the spontaneous activity in mice at 10.0 mg/kg; type: functional
[26] = tested on: Mus musculus; test: Tested for the ability to change in rectal temperature in mice at 7.5 mg/kg; type: functional
[27] = tested on: Canis familiaris; test: Tested for Maximal behavioral effect(overt behavior) in dogs, activity is expressed as av score at a dose of 0.4 mg/kg; type: functional, Canis lupus familiaris
[28] = tested on: Mus musculus; test: Tested for the ability to change in rectal temperature in mice at 5.0 mg/kg; type: functional
[29] = tested on: Mus musculus; test: Tested for the ability to alter the spontaneous activity in mice at 2.5 mg/kg; type: functional
[30] = tested on: Mus musculus; test: Tested for the ability to change in rectal temperature in mice at 10.0 mg/kg; type: functional

Compound: CCC(O)CCc1cc(O)c2c(c1)OC(C)(C)[C@@H]1CCC(C)=CC21 (stereo partly drawn)
- Change [1]: -12%
- Average score [2]: 1
- Activity [3]: 27
- Change in temparature [4]: -0.4 °C
- Change in temparature [5]: -1.3 °C
- Change in temparature [6]: -2.8 °C
- Average score [7]: -45%
- Activity [8]: 7
- Activity [9]: 13
- Activity [10]: 86
- Change in temparature [11]: -4.1 °C
- Activity [12]: 108
- Average score [13]: 2
- Change in temparature [14]: -7.6 °C
- Average score [15]: 4.5

Compound: CCC(O)CCc1cc(O)c2c(c1)OC(C)(C)[C@@H]1CCC(CO)=CC21 (stereo partly drawn)
- Activity [16]: 59
- Activity [17]: 26
- Activity [8]: 33
- Activity [9]: 81
- Change in temparature [18]: -0.4 °C
- Average score [19]: 3
- Change in temparature [14]: -3 °C
- Change in temparature [20]: -0.2 °C
- Change in temparature [21]: -4.3 °C
- Average score [15]: 1

Compound: CCCCCc1cc(O)c2c(c1)OC(C)(C)[C@@H]1CCC(C)=C[C@@H]21 [DRONABINOL]
- Change [1]: -39%
- Activity [22]: 20
- Change in temparature [23]: -2.6 °C
- Activity [24]: 17
- Change [7]: -46%
- Activity [25]: 6
- Change in temparature [26]: -3.8 °C
- Average score [27]: 4
- Change in temparature [28]: -3.6 °C
- Activity [29]: 59
- Change in temparature [30]: -4.2 °C
- Average score [13]: 0
- Average score [15]: 3
